In patent US8236778B2, “Synergistic 5′-methylthioadenosine combinations” (Proyecto de Biomedicina Cima, S.L., priority 2008, dated 2012):

Assays:
[1] = tested on: Chronic-Relapsing EAE (RR-EAE); details: model of Multiple Sclerosis; cited from earlier work
acute EAE model = assay: EAE disease severity score in MS animal model (acute EAE model, rMOG35-55 immunization); assay type: in vivo; details: female C57/bl6 mice, daily i.p. treatment starting after immunization, followed to day 31; (27.84 mg/kg), GA 0.1 mg/mouse/day; n=5 per group
[2] = tested on: acute Experimental Autoimmune Encephalomyelitis (EAE); details: model of Multiple Sclerosis; cited from earlier work
[3] = wide range of doses; cited from earlier work
MS relapses = details: current GA therapy; cited from earlier work

CSC[C@H]1O[C@@H](n2cnc3c(N)ncnc32)[C@H](O)[C@@H]1O [MTA, 5′-methylthioadenosine]
effect on Chronic-Relapsing EAE [1]: ameliorates | course / severity of the disease (EAE) (acute EAE model): course of the disease with intermediate intensity | effect on acute EAE [2]: capable of preventing | side effects [3]: without side effects

L-glutamic acid polymer with L-alanine, L-lysine and L-tyrosine, acetate (salt) [GA, reference compound]
course / severity of the disease (EAE) (acute EAE model): course of the disease with intermediate intensity | efficacy in preventing new relapses in MS (MS relapses): not more than 25%
